Experimental data as given in PubChem BioAssay (NCI).
Several values for one entry are separate records, joined by “and”; a condition that tells them apart may be missing. Equal entries are not always repeated.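 Briefly, cells in 96-well plates were exposed to five compound concentrations for 48 h, and endpoints were estimated by linear interpolation. The concentration for 50% growth inhibition is given as GI50. TGI: total growth inhibition.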

Columns and labels:
Experiment in all cases: growth of human tumour cells (NCI), 48 h
OVCAR-4 ovarian = tested on: OVCAR-4 ovarian
HCC-2998 colon = tested on: HCC-2998 colon
M14 melanoma = tested on: M14 melanoma
SW-620 colon = tested on: SW-620 colon
OVCAR-8 ovarian = tested on: OVCAR-8 ovarian
HOP-92 NSCLC = tested on: HOP-92 NSCLC
NCI-H522 lung = tested on: NCI-H522 lung
HCT-15 colon = tested on: HCT-15 colon
SF-295 CNS = tested on: SF-295 CNS
KM12 colon = tested on: KM12 colon

Compound	GI50 (OVCAR-4 ovarian)	TGI (OVCAR-4 ovarian)	GI50 (HCC-2998 colon)	TGI (HCC-2998 colon)	GI50 (M14 melanoma)	TGI (M14 melanoma)	GI50 (SW-620 colon)	TGI (SW-620 colon)	GI50 (OVCAR-8 ovarian)	TGI (OVCAR-8 ovarian)	GI50 (HOP-92 NSCLC)	TGI (HOP-92 NSCLC)	GI50 (NCI-H522 lung)	TGI (NCI-H522 lung)	GI50 (HCT-15 colon)	TGI (HCT-15 colon)	GI50 (SF-295 CNS)	TGI (SF-295 CNS)	GI50 (KM12 colon)	TGI (KM12 colon)
CCOc1cc(C(C)(C)C)ccc1C1=N[C@@](C)(c2ccc(Cl)cc2)[C@@](C)(c2ccc(Cl)cc2)N1C(=O)N1CCN(CCS(C)(=O)=O)CC1	2.68 µM	38.3 µM	2.28 µM	4.98 µM	3.75 µM	14.6 µM	5.03 µM	20.5 µM	4.44 µM	26.5 µM	2.28 µM	8.82 µM	2.98 µM	10.2 µM	2.27 µM	5.79 µM	3.15 µM	10.5 µM	3.33 µM	11.4 µM
O=S(=O)(O)ONC1=NCCN1	> 100 µM	> 100 µM	> 100 µM	> 100 µM	> 100 µM	> 100 µM	72.5 µM	> 100 µM	> 100 µM	> 100 µM	> 100 µM	> 100 µM	> 100 µM	> 100 µM	> 100 µM	> 100 µM	> 100 µM	> 100 µM	> 100 µM	> 100 µM
COc1ccc(C(=O)O/N=C2/CCC/C2=C\c2ccccc2)cc1	–	> 100 µM	–	> 100 µM	–	> 100 µM	–	> 100 µM	–	> 100 µM	–	> 100 µM	–	> 100 µM	–	> 100 µM	–	> 100 µM	–	> 100 µM
CCCCCCNC(=O)Oc1ccc(/C(=C(\C)c2ccccc2)c2ccc(OCCN(CC)CC)cc2)cc1	5.46 µM	11.9 µM	2.33 µM	8.16 µM	1.11 µM	2.38 µM	1.3 µM	3.26 µM	6.02 µM	12.9 µM	2.59 µM	9.16 µM	3.48 µM	10.6 µM	1.31 µM	3.68 µM	2.11 µM	7.38 µM	2.84 µM	10 µM
O=C(NCCCCOCC#Cc1ccccc1C#CCS(=O)(=O)c1ccccc1)c1cc2ccccc2[nH]1	5.56 µM	22.7 µM	12 µM	32.4 µM	12.1 µM	36.3 µM	11.5 µM	> 45.5 µM	11.4 µM	48.9 µM	1.39 µM	15.7 µM	7.79 µM	16.4 µM	7.21 µM	15.7 µM	15.9 µM	> 44.7 µM	17.5 µM	> 50 µM
Oc1c(CN2CCOCC2)cc(COCc2ccccc2)c2cccnc12	1.97 µM	> 100 µM	3.28 µM	> 100 µM	1.59 µM	7.84 µM	3.61 µM	> 100 µM	2.8 µM	> 100 µM	41.6 µM	> 100 µM	1.79 µM	8.56 µM	0.286 µM	13.3 µM	3.68 µM	30.6 µM	3.73 µM	> 100 µM
N#Cc1c2c(c(-c3cccs3)n(C3OC(CO)C(O)C(O)C3O)c1=S)CCc1ccccc1-2 (stereo not drawn)	–	> 100 µM	–	> 100 µM	> 100 µM	> 100 µM	–	> 100 µM	–	> 100 µM	3.35 µM	> 88.8 µM	12.8 µM and 3.62 µM	> 100 µM	–	> 100 µM	–	> 100 µM	–	> 100 µM
Nc1c(C(=O)Nc2cccc(Br)c2)sc2nc3c(cc12)C(O)CCC3 (stereo not drawn)	3.14 µM	66 µM	1.61 µM	50.2 µM	0.36 µM	> 100 µM	0.4 µM	> 82 µM	0.77 µM	37.6 µM	0.383 µM	11.4 µM	0.412 µM	> 67.6 µM	0.35 µM	> 100 µM	0.314 µM	16.2 µM	0.399 µM	> 51 µM
O=C(Nc1cc(-c2cccnc2)nc(NCCCN2CCOCC2)n1)c1cc(Br)cc(C(F)(F)F)c1	3.26 µM	14.5 µM	1.77 µM	3.49 µM	1.67 µM	3.32 µM	2.25 µM	5.48 µM	2.98 µM	8.59 µM	1.97 µM	7.62 µM	1.95 µM	5.31 µM	1.92 µM	5.28 µM	1.94 µM	3.93 µM	3.62 µM	13.6 µM
C[N+](C)(C)CC1CCCC/C1=N\O (stereo not drawn)	–	> 100 µM	–	> 100 µM	–	> 100 µM	–	> 100 µM	–	> 100 µM	–	> 100 µM	–	> 100 µM	–	> 100 µM	–	> 100 µM	–	> 100 µM
CC[C@H](NC(=O)[C@H](CS(=O)(=O)CC1CC1)N[C@@H](c1ccc(F)cc1)C(F)(F)F)C(=O)C(=O)NC1CC1	82.9 µM	> 100 µM	> 100 µM	> 100 µM	> 100 µM	> 100 µM	> 100 µM	> 100 µM	> 100 µM	> 100 µM	98.7 µM	> 100 µM	> 100 µM	> 100 µM	> 100 µM	> 100 µM	> 100 µM	> 100 µM	> 100 µM	> 100 µM
C=CCCC(=O)N1C=CC(=O)[C@H](O)[C@@H]1/C=C/c1ccccc1	5.67 µM	> 32.5 µM	11.6 µM	> 32.5 µM	5.17 µM	16.8 µM	12.8 µM	> 32.5 µM	16 µM	> 32.5 µM	30.8 µM	> 32.5 µM	> 32.5 µM	> 32.5 µM	2.39 µM	> 32.5 µM	10.7 µM	> 32.5 µM	16 µM	> 32.5 µM
Cc1cc(S(=O)(=O)Nc2nc3cc(Cl)ccc3o2)c(SCc2ccccc2)cc1Cl	25.6 µM	74.7 µM	18.9 µM	37.4 µM	22.1 µM	43.9 µM	19.2 µM	38.5 µM	4.18 µM	26.1 µM	18.7 µM	39.1 µM	17.4 µM	40.1 µM	8.28 µM	25 µM	18.7 µM	46.1 µM	18.9 µM	45.5 µM
NS(=O)(=O)c1ccc(NC(=O)COC(=O)c2cccc3c(=O)c4ccccc4[nH]c23)cc1	–	> 100 µM	–	> 100 µM	–	> 100 µM	–	> 100 µM	–	65.8 µM	–	38.6 µM	–	43.5 µM	–	> 100 µM	–	52.6 µM	–	> 85.5 µM
CC(=O)O[C@H]1C=CC23OC(=O)[C@]1(C)[C@H]2[C@H](C(=O)O)C12CC(=O)[C@@](CO)(CC[C@H]13)C2	–	> 100 µM	–	> 100 µM	–	> 100 µM	–	> 100 µM	–	> 100 µM	–	> 100 µM	–	> 100 µM	–	> 100 µM	–	> 100 µM	–	> 100 µM
Cn1ncc(-c2ccc3c(=O)[nH]nc(CN)c3c2)c1-c1c(F)cc2ccccc2c1C#N	7.67 µM	25.2 µM	8.63 µM	20.8 µM	6.97 µM	21.1 µM	3.05 µM	15.1 µM	4.34 µM	17.5 µM	4.06 µM	18.1 µM	4.17 µM	17.7 µM	4.92 µM	19.1 µM	11.7 µM	24.6 µM	5 µM	17.4 µM
CC1(C)[C@@H](OC(N)=O)C=C[C@]2(C=O)[C@H]3CC[C@]4(C)[C@@H](c5ccc(=O)oc5)[C@@H](Cl)C[C@]4(O)C3=CC[C@@H]12	0.004 µM	0.0121 µM	0.0081 µM	0.0304 µM	0.00544 µM	0.0124 µM	0.00561 µM	0.013 µM	0.00517 µM	0.0123 µM	0.0057 µM	0.0165 µM	< 0.0025 µM	0.00573 µM	0.00555 µM	0.0129 µM	0.00502 µM	0.0111 µM	0.00743 µM	0.0238 µM
OC(COc1cccc2ccccc12)CN1CCN(c2ccccc2Cl)CC1 (stereo not drawn)	12.6 µM	25.8 µM	14.8 µM	29.3 µM	14.3 µM	29.4 µM	10.9 µM	27.9 µM	16.6 µM	32.2 µM	2.47 µM	16.8 µM	10.6 µM	25.1 µM	12.8 µM	28.6 µM	11.9 µM	26.9 µM	11.8 µM	25.9 µM
c1ccc2nc(OCCN3CC3)ccc2c1	10.3 µM	25.3 µM	2.31 µM	5.53 µM	8.15 µM	23.9 µM	1.97 µM	5.43 µM	14 µM	31.4 µM	1.9 µM	9.44 µM	1.71 µM	4.04 µM	13.3 µM	46.1 µM	11.6 µM	35.4 µM	4.37 µM	16.5 µM
CCOC(=O)c1ccccc1-c1c2ccc(=[N+](C)C)cc-2oc2cc(N(C)C)ccc12	0.167 µM	> 41.5 µM	0.35 µM	13.9 µM	0.448 µM	10.9 µM	0.261 µM	17.4 µM	0.195 µM	> 22.8 µM	0.619 µM	3.96 µM	0.306 µM	16.4 µM	2.96 µM	> 37.2 µM	0.278 µM	1.62 µM	0.196 µM	10.9 µM
CC(C)N(C(C)C)P(OCCC#N)OC1CC(n2cnc3c(=O)[nH]cnc32)OC1COC(=O)NCCCCCCNC(=O)OC(C)(C)c1ccc(-c2ccccc2)cc1 (stereo not drawn)	–	38.2 µM	–	65.1 µM	–	34.6 µM	–	> 100 µM	–	92.4 µM	–	75.7 µM	–	32.6 µM	–	> 100 µM	–	> 100 µM	–	35.5 µM
Cc1ccc(NC(=O)CCC(=O)C(C#N)c2ccccc2)cc1C (stereo not drawn)	–	> 100 µM	–	> 100 µM	–	> 100 µM	–	> 100 µM	–	> 100 µM	–	> 100 µM	–	> 100 µM	–	> 100 µM	–	> 100 µM	–	> 100 µM
O=[N+]([O-])c1cc(F)c2cccnc2c1O	6.63 µM	65.5 µM	10.6 µM	> 100 µM	7.56 µM	40.9 µM	3.44 µM	> 100 µM	11.3 µM	> 100 µM	2.84 µM	9.01 µM	4.01 µM	26 µM	6.73 µM	> 100 µM	3.77 µM	86.6 µM	7.95 µM	> 100 µM
O=C1c2ccccc2-c2c1c1ccccc1c(=O)n2-c1ccccc1	–	19.2 µM	–	> 100 µM	–	> 100 µM	–	> 100 µM	–	27.4 µM	–	> 50.3 µM	–	> 100 µM	–	> 100 µM	–	23.6 µM	–	> 100 µM
CCOC(=O)Cc1csc(NC(=O)COC(=O)c2ccc(OC)cc2)n1	98.2 µM	> 100 µM	> 100 µM	> 100 µM	> 100 µM	> 100 µM	> 96.1 µM	> 100 µM	47.5 µM	> 73.2 µM	7.58 µM	24.3 µM	19.6 µM	38.5 µM	> 100 µM	> 100 µM	> 100 µM	> 100 µM	> 83.6 µM	> 100 µM
O=C(Nc1cccc(C(F)(F)F)c1)c1cc(Br)cc(Br)c1O	–	> 10 µM	–	> 10 µM	–	> 10 µM	–	> 10 µM	–	> 10 µM	–	5.82 µM	–	9.82 µM	–	> 10 µM	–	7.19 µM	–	> 10 µM
COC(=O)C(Cc1nc2ccccc2[nH]c1=O)C(=O)C(=O)Nc1cc(C(F)(F)F)ccc1Cl (stereo not drawn)	–	27.9 µM	–	26.4 µM	–	30.9 µM	–	> 100 µM	–	30 µM	–	32.5 µM	–	19 µM	–	26.7 µM	–	71.2 µM	–	28.3 µM
CCCCCc1c(C)[nH]c(/C=C2\N=C(c3ccc[nH]3)C=C2OCc2ccccc2)c1C	0.0463 µM and 0.0163 µM	1.29 µM and 1.24 µM	0.0419 µM and 0.038 µM	1.7 µM and 1.24 µM	0.0296 µM and 0.0252 µM	0.0823 µM and 0.0748 µM	0.0369 µM and 0.0295 µM	1.21 µM and 0.322 µM	0.0489 µM and 0.039 µM	1.23 µM and 0.172 µM	0.00832 µM and 0.0187 µM	0.0562 µM and 0.0647 µM	0.0495 µM and 0.0237 µM	0.719 µM and 0.262 µM	0.0368 µM and 0.0246 µM	0.279 µM and 0.15 µM	0.0689 µM and 0.0431 µM	0.337 µM and 0.292 µM	0.0352 µM and 0.0246 µM	1.04 µM and 0.262 µM
